# Laboratory results reported in patent US20100291622A1, “NOVEL COMPOUND, PROCESS FOR PRODUCTION THEREOF, AND USE THEREOF” (SCHOOL JURIDICAL PERSON KITASATO INSTITUTE, priority 2007, published 2010).
# Like-named read-outs stand apart in the source and are kept apart here.
# Assays:
# Solubility in solvents = type: physicochemical
# [1] = target: T1, undecaprenyl diphosphate synthase derived from Staphylococcus aureus (Staphylococcus aureus, UniProt P60477); assay: Inhibitory effect on undecaprenyl diphosphate synthase (phosphate release, Amplex Red fluorescence); type: biochemical
# T1 construct: made in house; host or cells: E. coli BL21 (DE3), T7 promoter, IPTG induction; unpurified cell-free extract (100,000 x g supernatant)
# Procedure: (1) Inhibitory effect on the undecaprenyl diphosphate synthase derived from Staphylococcus aureus
# The test on the activity of undecaprenyl diphosphate synthase was determined following a method of LI et al. (J. Biomol. Screen., vol. 8, pages 712-715, 2003) with partial changes. […]
# The measurement of the activity of undecaprenyl diphosphate synthase was conducted as follows: the FKI-3368 substance was added to a buffer solution B (100 mM Tris-HCl buffer solution (pH 7.5), 50 mM potassium chloride, 0.5 mM magnesium chloride, 0.5 μM farnesyl diphosphate, 3.5 μM isopentenyl diphosphate, […] inorganic pyrophosphatase) so that 90 μL in total volume might be respectively put in each well of a 96-well microplate. […] In order to quantify the released phosphate, 100 μL of a solution C (0.5M Tris-HCl buffer solution (pH 8.8), 1.5 mM inosine, 50 μM Amplex™ Red, 0.02 U nucleoside phosphorylase, 1 U peroxidase, 0.4 U xanthine oxidase) was added to each well and after reaction was performed at room temperature for 40 minutes, fluorescence intensity was measured under the conditions of an excitation wavelength at 544 nm and a measurement wavelength at 590 nm.
# The addition amount of […] and the intensity of fluorescence (F.I.) measured in a reaction liquid without the addition thereof were applied to the following expression and the inhibition % was calculated: […]
# [2] = tested on: Bacillus subtilis ATCC 6633; assay: MIC by agar dilution; type: cell-based; settings: ATCC6633; Bacillus subtilis ATCC 6633, 37° C. for 18 hours
# Procedure: (§1) The measurement of the minimal inhibitory concentration (MIC) for various microbes of the FKI-3368-I substance of the present invention was performed by the following method. An ethanol solution of the FKI-3368-I substance was subjected to 2-fold dilution from the concentration of 1,000 μg/ml to prepare 14 stage diluted solutions (1,000 μg/ml, 500 μg/ml, 250 μg/ml, 125 μg/ml, 62.5 μg/ml, 31.3 μg/ml, 15.6 μg/ml, 7.8 μg/ml, 3.9 μg/ml, 2 μg/ml, 1 μg/ml, 0.5 μg/ml, 0.24 μg/ml and 0.12 μg/ml). After 1 ml each of the respective diluted solutions was placed on a round shape dish (90 mm (diameter)×20 mm, produced by IWAKI Co., Ltd.), 9 ml of a culture medium-N for sensitivity disc (for bacteria; produced by Nissui Pharmaceutical Co., Ltd.) or Sabouraud glucose agar (for yeast or mold; produced by Nihon Pharmaceutical Co., Ltd.) was added thereto to form plate media. The test microbes had been incubated in advance in Muller Hinton culture media (for bacteria; produced by Nissui Pharmaceutical Co., Ltd.) or potato dextrose agar media (for yeast or mold; produced by Nissui Pharmaceutical Co., Ltd.). On the very date when the test was performed, the resultant microbe suspensions were diluted with an Muller Hinton culture medium or a potato dextrose culture medium and a platinum loop thereof was streak-smeared on the plate media. These streak-smeared plate media was incubated at 37° C. for 18 hours (for bacteria) or at 27° C. for 40 hours (for yeast and mold) and MIC was determined.
# [3] = tested on: Staphylococcus aureus ATCC 6538P; assay: MIC by agar dilution; type: cell-based; settings: ATCC6538P, 37° C. for 18 hours
# Procedure: as §1
# [4] = tested on: Micrococcus luteus ATCC 9341; assay: MIC by agar dilution; type: cell-based; settings: ATCC9341; Micrococcus luteus ATCC 9341, 37° C. for 18 hours
# Procedure: as §1
# Escherichia coli NIHJ = assay: MIC by agar dilution; type: cell-based; settings: 37° C. for 18 hours
# Procedure: as §1
# [5] = tested on: Mycobaderium smegmatis ATCC 607; assay: MIC by agar dilution; type: cell-based; settings: 18 h
# Procedure: as §1
# [6] = tested on: Klebsiella pneumoniae ATCC 10031; assay: MIC by agar dilution; type: cell-based; settings: ATCC10031; Klebsiella pneumoniae ATCC 10031, 37° C. for 18 hours
# Procedure: as §1
# [7] = tested on: Penicillium chrysogenam IAM 12842; assay: MIC by agar dilution; type: cell-based; settings: IAM12842, 40 h
# Procedure: as §1
# [8] = tested on: Candida albicans ATCC 64550; assay: MIC by agar dilution; type: cell-based; settings: ATCC64550, 40 h
# Procedure: as §1
# [9] = tested on: Aspergillus niger ATCC 9642; assay: MIC by agar dilution; type: cell-based; settings: ATCC9642; Aspergillus niger ATCC 9642, 27° C. for 40 hours
# Procedure: as §1
# [10] = tested on: Serratia marcescens IAM 1021; assay: MIC by agar dilution; type: cell-based; settings: IAM1021; Serratia marcescens IAM 1021, 37° C. for 18 hours
# Procedure: as §1
# Mucor racemosus IFO 4581 = assay: MIC by agar dilution; type: cell-based; settings: IFO4581; Mucor racemosus IFO 4581, 27° C. for 40 hours
# Procedure: as §1
# MRSA K24 = assay: MIC by agar dilution; type: cell-based; settings: Staphylococcus aureus, 18 h
# Procedure: as §1
# [11] = tested on: Pseudomonas aeruginosa IFO 3080; assay: MIC by agar dilution; type: cell-based; settings: IFO3080; Pseudomonas aeruginosa IFO 3080, 37° C. for 18 hours
# Procedure: as §1
# [12] = tested on: Saccharomyces cerevisiae ATCC 9763; assay: MIC by agar dilution; type: cell-based; settings: ATCC9763; Saccharomyces cerevisiae ATCC 9763, 27° C. for 40 hours
# Procedure: as §1
# [13] = methanol, ethanol, acetonitrile, ethyl acetate, chloroform and dimethylsulfoxide
# T1 sequence (P60477 whole entry): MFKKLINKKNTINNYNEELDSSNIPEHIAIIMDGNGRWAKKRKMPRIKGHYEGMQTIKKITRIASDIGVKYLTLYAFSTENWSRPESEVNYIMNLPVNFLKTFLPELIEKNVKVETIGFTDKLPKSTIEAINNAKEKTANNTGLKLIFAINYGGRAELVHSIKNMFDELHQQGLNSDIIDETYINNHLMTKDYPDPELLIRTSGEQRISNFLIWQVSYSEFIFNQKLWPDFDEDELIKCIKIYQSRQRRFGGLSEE
SMILES,Solubility in solvents (Solubility in solvents; [13]),Solubility in solvents (Solubility in solvents; water),"IC50 ([1]; cell-free extract of transformed E. Coli as enzyme source, 37° C., 20 minutes, read-out: concentration at which the undecaprenyl diphosphate synthase activity was inhibited to 50% (IC50)) [µM]",MIC [2] [µg/mL],MIC [3] [µg/mL],MIC [4] [µg/mL],MIC (Escherichia coli NIHJ) [µg/mL],MIC [5] [µg/mL],MIC [6] [µg/mL],MIC [7] [µg/mL],MIC [8] [µg/mL],MIC [9] [µg/mL],MIC [10] [µg/mL],MIC (Mucor racemosus IFO 4581) [µg/mL],MIC (MRSA K24) [µg/mL],MIC [11] [µg/mL],MIC [12] [µg/mL],IC50 [1] [µM]
COc1cc(O)c2c(O)c3c(c4c2c1C1(C4)C(C)=CCCC1(C)C)C(O)C1(O)CC(O)=C(C(N)=O)C(=O)C1(O)C3=O (centres unmarked) [FKI-3368-1],Soluble,indissoluble,4,0.4,0.78,1.56,> 100,> 100,> 100,6.25,6.25,12.5,> 100,25,0.78,> 100,12.5,
COc1cc(O)c2c(O)c3c(c4c2c1C1(C4)C(C)=CCCC1(C)C)C(O)C1(O)CC(O)=C(C(C)=O)C(=O)C1(O)C3=O (centres unmarked) [FKI-3368-2],Soluble,indissoluble,,,,,,,,,,,,,,,,10
